Measured values from patent US7767240B2, “Microbiological control in poultry processing” (priority 2001, dated 2010).
Several values for one entry are separate records, joined by “and”; a condition that tells them apart may be missing. Equal entries are not always repeated.

Legend:
[1] = test system: Pseudomonas aeruginosa (ATCC 15442) biofilm; test: MBEC biofilm eradication test (Calgary biofilm device); format: cell-based; conditions: one-hour biocide contact time; for MBEC (minimum biofilm eradication concentration): individual determinations
Text: Table 45 summarizes test results performed at MBEC Biofilm Technologies, Inc., Calgary, Canada on the effectiveness of various biocides on biofilm removal. The test procedure, developed at the University of Calgary, utilizes a device which allows the growth of 96 identical biofilms under carefully controlled conditions. The device consists of a two-part vessel comprised of an upper plate containing 96 pegs that seals against a bottom plate. The bottom plate can consist of either a trough (for biofilm growth) or a standard 96-well plate (for biocide challenge). The biofilms develop on the 96 pegs. The device has been used as a general method for evaluating the efficacy of antibiotics and biocides towards biofilms. See in this connection H. Ceri, et al., “The MBEC Test: A New In Vitro Assay Allowing Rapid Screening for Antibiotic Sensitivity of Biofilm”, Proceedings of the ASM, 1998, 89, 525; Ceri, et al., “Antifungal and Biocide Susceptibility testing of Candida Biofilms using the MBEC Device”, Proceedings of the Interscience Conference on Antimicrobial Agents and Chemotherapy, 1998, 38, 495; and H. Ceri, et al., “The Calgary Biofilm Device: A New Technology for the Rapid Determination of Antibiotic Susceptibility of Bacterial Biofilms”, Journal of Clinical Microbiology, 1999, 37, 1771-1776.
Six biocide systems were evaluated using the above test procedure and test equipment. Five of these systems were oxidizing biocides, viz., chlorine (from NaOCl), halogen (from NaOCl+NaBr), halogen (from BCDMH), bromine (from DBDMH), and chlorine (from trichloroisocyanuric acid), all expressed as bromine as Br2 in mg/L, so that all test results were placed on the same basis. The sixth biocide was glutaraldehyde, a non-oxidizing biocide.
These biocide systems were used to challenge biofilms of Pseudomonas aeruginosa (ATCC 15442). This is a Gram (−) bacterium which is ubiquitous in microbiological slimes found in many water systems. See in this connection J. W. Costerton and H. Anwar, “Pseudomonas aeruginosa: The Microbe and Pathogen”, in Pseudomonas aeruginosa Infections and Treatment, A. L. Baltch and R. P. Smith editors, Marcel Dekker publishers, New York, 1994. In the field of poultry processing, S. Notermans, J. Dormans, and G. C. Mead, Biofouling, 1991, Vol. 5, pages 21-36, report observation of biofilms in poultry slaughter houses by use of scanning electron microscopy.
In Table 45 the MBEC (minimum biofilm eradication concentration) results presented are for the one-hour biocide contact time used in the test. The values given for the halogen containing biocides are expressed in terms of mg/L of bromine as Br2. The data on the glutaraldehyde is in terms of mg/L as active ingredient. […] In fact, only slightly more than one-half as much bromine from DBDMH was required to remove the biofilm as compared to the total halogen, expressed as Br2, that was required from BCDMH.

[2] = test system: Escherichia coli field strain; test: Chill water bacteria reduction (Example 2); format: cell-based
Experimental: The trial events and experimental design used were as follows: • a) For all treatments a total of 190 birds were processed in a normal fashion. Each treatment involved use of 10 birds. • b) A warm (100° F.) bath was prepared containing 5×10^4 DelMarVa (Delaware-Maryland farm area) field Escherichia coli stain bacteria per mL. At least 200 mL of total bath fluid was provided for each bird. • c) All birds (both controls and treated) were randomly immersed into the warm bath. Both the inside and outside carcass areas were immersed to assure complete coverage. • d) Each separate chill tank water solution (normal tap water adjusted pH to 8.5, ice added to produce temperatures of <45° F.) contained 2×10^3 per mL bacteria. • e) The chill tank water solutions (at least 750 mL each) were be prepared for each disinfecting treatment, and birds were immersed for a period of 1.5 hours. • f) Each 10 minutes during the 1.5 hour chilling period, the birds were completely lifted out of solution and then reimersed in the solution. After the 1.5 hour chilling period, the birds were taken from the chill water and drained for 30 seconds, then promptly (within 5 minutes) placed into a sterile whole bird stomacher bag containing 400 mL diluent (Butterfield's Phosphate Diluent) bacteria collection. • g) Diluent (400 mL) was added to each carcass contained in a sterile stomacher bag while making sure to pour the diluent into the inside of the abdominal cavity. The carcass was rinsed inside and out with a rocking motion for one minute (ca. 35 RPM). […] After the fluids had been diluted, 0.1 mL of fluid was be placed on a MacConkey agar plate and bacteria counts determined. In cases where the goal of a 25-250 count on the plate was not achieved, another dilution and replating were conducted. • j) After all carcasses for each treatment had been dipped, water sample bacteria were determined. • k) Total bacteria per bird were calculated. […]

| Compound | MBEC, avg. [1] | MBEC (minimum biofilm eradication concentration) [1] | Mean Chill Water Bacteria Reduction (%) ([2]; 50 ppm Cl2 (equivalent)) | Mean Chill Water Bacteria Reduction (%) ([2]; 100 ppm Cl2 (equivalent)) | Mean Chill Water Bacteria Reduction (%) ([2]; 150 ppm Cl2 (equivalent)) |
| --- | --- | --- | --- | --- | --- |
| CC1(C)C(=O)N(Cl)C(=O)N1Br [BCDMH, N,N′-bromochloro-5,5-dimethylhydantoin] | 2.5 mg/L of bromine as Br2 | 2.5, 2.5 mg/L of bromine as Br2 |  |  |  |
| CC1(C)C(=O)N(Br)C(=O)N1Br [DBDMH, 1,3-dibromo-5,5-dimethylhydantoin] | 1.4 mg/L of bromine as Br2 | 1.4 mg/L of bromine as Br2 and 1.4, 1.4 mg/L of bromine as Br2 | 99.9999 | 99.9999 | 99.9999 |
